Measurements taken from article PMC5640156 (Journal of the American Chemical Society, 2017).

T1: P450cam (Pseudomonas putida, UniProt P00183, R187A)
T1 sequence (P00183 2-415 R187A): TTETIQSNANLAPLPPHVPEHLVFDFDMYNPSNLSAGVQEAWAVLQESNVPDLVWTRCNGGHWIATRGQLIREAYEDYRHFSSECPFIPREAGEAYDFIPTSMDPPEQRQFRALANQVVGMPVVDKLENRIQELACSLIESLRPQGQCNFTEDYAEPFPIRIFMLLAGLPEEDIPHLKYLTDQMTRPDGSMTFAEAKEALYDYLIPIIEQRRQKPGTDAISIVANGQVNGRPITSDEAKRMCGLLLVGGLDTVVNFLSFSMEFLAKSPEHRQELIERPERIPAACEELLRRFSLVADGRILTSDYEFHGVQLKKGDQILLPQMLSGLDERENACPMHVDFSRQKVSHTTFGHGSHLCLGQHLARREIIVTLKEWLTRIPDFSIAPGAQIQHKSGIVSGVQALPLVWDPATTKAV

T2: R186A mutant of cytochrome P450cam (Pseudomonas putida, UniProt P00183 2-415, R186A)
T2 sequence: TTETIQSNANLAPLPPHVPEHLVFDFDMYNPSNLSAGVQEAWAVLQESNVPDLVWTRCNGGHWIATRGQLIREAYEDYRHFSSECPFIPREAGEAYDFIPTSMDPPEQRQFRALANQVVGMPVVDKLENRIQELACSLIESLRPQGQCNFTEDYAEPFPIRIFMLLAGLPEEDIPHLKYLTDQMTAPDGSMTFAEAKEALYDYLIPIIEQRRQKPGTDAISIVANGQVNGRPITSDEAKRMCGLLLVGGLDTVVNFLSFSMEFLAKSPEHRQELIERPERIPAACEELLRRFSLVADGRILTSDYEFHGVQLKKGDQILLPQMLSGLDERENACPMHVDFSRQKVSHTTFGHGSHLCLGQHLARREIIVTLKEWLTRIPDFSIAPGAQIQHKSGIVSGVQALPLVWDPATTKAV


What was measured:
[1] = target: T1, P450cam; test: isothermal titration calorimetry; format: binding
[2] = target: T2, R186A mutant of cytochrome P450cam; test: ITC

Kd [2] [µM] | Molecule | Kd [1] [µM]
– | CC1(C)[C@@H]2CC[C@@]1(C)C(=O)C2 [D-camphor] | 32.2 ± 4
22.1 | putidaredoxin (natural protein, Pseudomonas putida) MSKVVYVSHDGTRRELDVADGVSLMQAAVSNGIYDIVGDCGGSASCATCHVYVNEAFTDKVPAANEREIGMLECVTAELKPNSRLCCQIIMTPELDGIVVDVPDRQW | –
